From patent US4637996A, “Antiulcer composition containing a dipeptide compound” (Nippon Zoki Pharmaceutical Co., Ltd., priority 1984, dated 1987) come the findings set out here.

This assay has as its system histamine-induced ulcer formation. As to the kind of experiment: Inhibition of histamine-induced ulcer formation. It is filed as in vivo, Wister strain rats. As to conditions: 20 mg/kg i.v., rats, histamine dihydrochloride 300 mg/kg i.p., 4 hours; for Ulcer coefficient (mean ± S.E.): sum of surface area of ulcer lesion. The procedure: Immediately thereafter, 300 mg/kg of histamine dihydrochloride was administered intraperitoneally (i.p.) F. Burcher et al; [Beith. Path. Anat., 81, 391 (1928)]. Four hours later, each animal was bled to death by decapitation, and the stomach was removed. 7.5 ml of physiological saline was infused into the removed stomach and partially fixed in 10% formalin for 10 minutes. Then, the stomach was incised along the greater curvature. The sum of the surface area of the ulcer lesion on the glandular part of the stomach was designated as the ulcer coefficient.

Consider `CN/C(=N/CCSCc1nc[nH]c1C)NC#N` [Cimetidine], for which the “Inhibition rate (%)” value was found to be 57.6% and the “Ulcer coefficient (mean ± S.E.)” value is on record as 19.1 ± 10.6.
The like results for cyclic histidyllysine were, in that order, 66.8% and 14.9 ± 6.0.
